Measured values taken from patent US20060205641A1, “[…]4 polypeptides and […]4 polynucleotides” (SmithKline Beecham plc, priority 1999, published 2006).

What was measured:
Assay type in all cases: cell-based
[1] = tested on: wild type HEK293 cells; assay: FLIPR intracellular calcium assay, wild type HEK293 cells; conditions: result in words
[2] = tested on: HEK293 cells transfected with empty vector; assay: FLIPR intracellular calcium assay, HEK293 cells transfected with empty vector; conditions: result in words
[3] = molecular target: T1, hVR1 (Homo sapiens, UniProt Q8NER1); conditions: for pEC50 hVR1: HEK293 cells transiently expressing hVR1, Fluo-3 calcium, FLIPR, mean ± s.e.mean, n = 3-5, IA = inactive; for activity at VR1: result in words
T1 construct: expressed in transfected cells; host or cells: HEK293 (transient expression)

[4] = molecular target: T2, hVR4 (Homo sapiens, UniProt Q9HBA0); assay: FLIPR intracellular calcium assay, HEK293 cells transiently expressing hVR4 ([…]4); conditions: for pEC50 hVR4: HEK293 cells transiently expressing hVR4, Fluo-3 calcium, FLIPR, mean ± s.e.mean, n = 3-5, IA = inactive; for effect on intracellular calcium in HEK293-hVR4 cells: result in words
T2 construct: expressed in transfected cells; host or cells: HEK293 (transient expression)
Protocol: HEK293 cells transiently expressing hVR1 or hVR4 were seeded into FLIPR96 plates at 25,000 cells/well and cultured overnight. The cells were then loaded in medium containing 4 microM Fluo-3 for 2 hrs, at room temperature, in the dark. The cell plates were then washed 4× with Tyrode containing 1.5 mM calcium and 0.2% BSA. Agonist and antagonist plates were prepared in the same buffer. Cells were preincubated with either antagonist or buffer at room temperature for 30 mins. Agonists additions and calcium measurements were made in the FLIPR (Smart et al., (2000) Br J. Pharmacol. 129, 227-230).

T1 sequence (Q8NER1 whole entry): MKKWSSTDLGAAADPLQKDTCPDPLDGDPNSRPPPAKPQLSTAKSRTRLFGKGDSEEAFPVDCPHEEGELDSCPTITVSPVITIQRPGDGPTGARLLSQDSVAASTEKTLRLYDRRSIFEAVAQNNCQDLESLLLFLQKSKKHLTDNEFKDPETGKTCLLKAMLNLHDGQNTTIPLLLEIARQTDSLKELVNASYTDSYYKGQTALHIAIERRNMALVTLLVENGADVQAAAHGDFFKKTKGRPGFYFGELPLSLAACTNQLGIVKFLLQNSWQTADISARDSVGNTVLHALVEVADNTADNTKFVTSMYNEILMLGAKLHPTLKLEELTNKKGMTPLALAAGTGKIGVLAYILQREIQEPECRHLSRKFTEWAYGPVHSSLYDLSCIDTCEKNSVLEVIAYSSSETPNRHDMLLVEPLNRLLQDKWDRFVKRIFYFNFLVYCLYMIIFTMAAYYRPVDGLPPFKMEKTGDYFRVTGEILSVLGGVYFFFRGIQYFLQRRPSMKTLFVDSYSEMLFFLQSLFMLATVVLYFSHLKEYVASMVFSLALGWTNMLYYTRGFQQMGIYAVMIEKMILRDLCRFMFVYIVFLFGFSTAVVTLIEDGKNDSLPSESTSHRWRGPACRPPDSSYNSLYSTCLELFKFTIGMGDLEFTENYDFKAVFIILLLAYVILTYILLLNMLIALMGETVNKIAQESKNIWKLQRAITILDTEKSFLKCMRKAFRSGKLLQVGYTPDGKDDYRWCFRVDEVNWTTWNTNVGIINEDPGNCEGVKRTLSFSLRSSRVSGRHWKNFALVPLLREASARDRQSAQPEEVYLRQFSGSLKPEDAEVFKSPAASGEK
T2 sequence (Q9HBA0 whole entry): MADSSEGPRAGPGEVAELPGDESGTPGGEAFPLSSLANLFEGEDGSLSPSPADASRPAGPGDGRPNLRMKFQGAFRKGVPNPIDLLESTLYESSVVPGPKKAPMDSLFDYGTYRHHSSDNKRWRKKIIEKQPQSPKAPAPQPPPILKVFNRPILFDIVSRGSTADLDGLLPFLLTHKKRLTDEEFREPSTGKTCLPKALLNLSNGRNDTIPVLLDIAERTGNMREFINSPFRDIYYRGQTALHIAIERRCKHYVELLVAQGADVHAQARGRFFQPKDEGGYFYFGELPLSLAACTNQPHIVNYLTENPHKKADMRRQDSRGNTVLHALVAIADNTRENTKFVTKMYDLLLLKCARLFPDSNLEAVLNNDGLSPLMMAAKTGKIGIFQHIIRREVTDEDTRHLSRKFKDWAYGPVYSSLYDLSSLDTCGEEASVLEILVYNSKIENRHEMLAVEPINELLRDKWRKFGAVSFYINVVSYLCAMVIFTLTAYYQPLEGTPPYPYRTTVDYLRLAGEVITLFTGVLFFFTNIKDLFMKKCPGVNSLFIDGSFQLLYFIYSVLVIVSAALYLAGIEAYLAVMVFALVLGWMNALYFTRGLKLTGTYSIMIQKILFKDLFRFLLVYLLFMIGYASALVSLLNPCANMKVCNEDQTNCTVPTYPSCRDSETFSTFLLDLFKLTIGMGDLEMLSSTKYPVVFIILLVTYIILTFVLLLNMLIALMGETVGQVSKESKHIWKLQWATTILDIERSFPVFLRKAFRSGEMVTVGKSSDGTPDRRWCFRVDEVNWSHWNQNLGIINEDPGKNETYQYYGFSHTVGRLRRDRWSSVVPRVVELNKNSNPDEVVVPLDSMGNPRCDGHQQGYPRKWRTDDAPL

Row | SMILES | effect on intracellular calcium in wild type HEK293 cells [1] | effect on intracellular calcium in cells transfected with empty vector [2] | pEC50 hVR1 [3] | Emax ([3]; at VR1, compared to capsaicin and RTX) | activity at VR1 [3] | pEC50 hVR4 [4] | effect on intracellular calcium in HEK293-hVR4 cells [4] | selectivity (conclusion) ([4]; VR4 versus VR1, result in words)
1 | CCCCCCCCCCCCCC(=O)O[C@@H]1[C@@H](C)[C@@]2(O)[C@@H](C=C(CO)C[C@]3(O)C(=O)C(C)=C[C@@H]23)[C@@H]2C(C)(C)[C@]12OC(C)=O [PMA, phorbol 12-myristate 13-acetate] | without effect | without effect | 7.86 ± 0.06 | 0.46 | partial agonist | 6.64 ± 0.06 | increased intracellular calcium | 
2 | CCCCCCCCCC(=O)O[C@@H]1[C@@H](C)[C@@]2(O)[C@@H](C=C(CO)C[C@@]3(O)C(=O)C(C)=C[C@@H]23)[C@@H]2C(C)(C)[C@]12OC(=O)CCCCCCCCC [4αPDD, 4α-phorbol-12,13-didecanoate] | without effect | without effect |  |  | inactive | 5.73 ± 0.06 | increased intracellular calcium | In conclusion, 4αPDD acts as a VR4 selective agonist.
3 | C=C(C)[C@]12C[C@@H](C)[C@@]34O[C@](Cc5ccccc5)(O[C@@H]1[C@@H]3C=C(COC(=O)Cc1ccc(O)c(OC)c1)C[C@]1(O)C(=O)C(C)=C[C@@H]41)O2 [RTX] |  |  | 8.93 ± 0.20 |  |  |  |  | 
